Measurements: patent US20130078351A1, “COMPOUNDS AND METHODS FOR ENHANCING SALTY TASTE” (Monell Chemical Senses Center, priority 2010, published 2013)

Columns and labels:
human taste = experiment: Psychophysical assessment of salty taste enhancing properties; type: in vivo
Method: 121 subjects participated in this study. They were familiar with the taste of the 5 modalities (sweet, bitter, umami, sour, and salty), and the use of a modality—specific task. Each subject was presented with 5 cups, each having 10 ml of fluid, plus a large amount of water as a rinse before and in between each sampling. Subjects were told to hold the sample in their mouth for several seconds before making a judgment. Subjects sampled and rated all five solutions, then repeated the study. Subjects rated intensity and modality. The samples tested were • 1. 50 mM NaCl • 2. 75 mM NaCl • 3. N-(2-hydroxyethyl)-4-methylpentanamide at 20 ppm • 4. 50mM NaCl plus 20 ppm N-(2-hydroxyethyl)-4-methylpentanamide • 5. 75 mM NaCl plus 20 ppm N-(2-hydroxyethyl)-4-methylpentanamide
The results of this study are depicted in FIG. 1. The X-axis of FIG. 1 provides the identity of the five solutions that were rated and the Y-axis provides the Geometric Mean saltiness intensity ratings. Error bars are Geometric Standard Errors. […] It was slightly bitter tasting with an average bitterness intensity of 3 (data not shown). N-(2-hydroxyethyl)-4-methylpentanamide enhanced the saltiness of 50 mM NaCl by more than 100% and the saltiness of 75 mM NaCl by approximately 35%. Consistency among subjects was high as indicated by the error bars.

[1] = molecular target: T1, Epithelial Sodium Channel (ENaC) subunits delta/beta/gamma (Homo sapiens, UniProt P51168+P51170+P51172); experiment: Testing in Xenopus oocytes expressing ENaC (inward sodium current recording); type: cell-based; settings: oocyte expressing delta
T1 construct: expressed in transfected cells; host or cells: Xenopus laevis oocytes injected with cRNA
T1 sequence (P51172 1-802): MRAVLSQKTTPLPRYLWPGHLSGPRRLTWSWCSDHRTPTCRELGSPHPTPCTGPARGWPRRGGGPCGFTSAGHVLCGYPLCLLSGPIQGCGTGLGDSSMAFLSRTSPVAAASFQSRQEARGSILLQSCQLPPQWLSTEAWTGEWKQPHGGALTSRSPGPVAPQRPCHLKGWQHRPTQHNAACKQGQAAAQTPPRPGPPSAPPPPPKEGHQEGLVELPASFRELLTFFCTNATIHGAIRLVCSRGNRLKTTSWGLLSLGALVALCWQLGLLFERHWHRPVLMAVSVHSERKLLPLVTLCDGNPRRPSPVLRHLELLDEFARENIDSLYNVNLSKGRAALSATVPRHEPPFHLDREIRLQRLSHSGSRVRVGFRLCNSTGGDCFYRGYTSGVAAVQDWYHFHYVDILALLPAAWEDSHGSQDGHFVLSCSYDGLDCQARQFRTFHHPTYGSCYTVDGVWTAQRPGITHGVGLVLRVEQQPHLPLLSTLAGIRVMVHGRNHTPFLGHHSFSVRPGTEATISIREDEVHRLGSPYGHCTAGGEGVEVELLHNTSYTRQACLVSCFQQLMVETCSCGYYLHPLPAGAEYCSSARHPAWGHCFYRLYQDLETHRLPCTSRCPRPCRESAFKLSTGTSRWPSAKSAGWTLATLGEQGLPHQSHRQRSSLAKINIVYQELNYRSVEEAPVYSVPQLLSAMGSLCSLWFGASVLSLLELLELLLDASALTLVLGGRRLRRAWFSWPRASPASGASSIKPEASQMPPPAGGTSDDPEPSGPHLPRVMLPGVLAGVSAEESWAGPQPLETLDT
T1 sequence (P51168 1-640): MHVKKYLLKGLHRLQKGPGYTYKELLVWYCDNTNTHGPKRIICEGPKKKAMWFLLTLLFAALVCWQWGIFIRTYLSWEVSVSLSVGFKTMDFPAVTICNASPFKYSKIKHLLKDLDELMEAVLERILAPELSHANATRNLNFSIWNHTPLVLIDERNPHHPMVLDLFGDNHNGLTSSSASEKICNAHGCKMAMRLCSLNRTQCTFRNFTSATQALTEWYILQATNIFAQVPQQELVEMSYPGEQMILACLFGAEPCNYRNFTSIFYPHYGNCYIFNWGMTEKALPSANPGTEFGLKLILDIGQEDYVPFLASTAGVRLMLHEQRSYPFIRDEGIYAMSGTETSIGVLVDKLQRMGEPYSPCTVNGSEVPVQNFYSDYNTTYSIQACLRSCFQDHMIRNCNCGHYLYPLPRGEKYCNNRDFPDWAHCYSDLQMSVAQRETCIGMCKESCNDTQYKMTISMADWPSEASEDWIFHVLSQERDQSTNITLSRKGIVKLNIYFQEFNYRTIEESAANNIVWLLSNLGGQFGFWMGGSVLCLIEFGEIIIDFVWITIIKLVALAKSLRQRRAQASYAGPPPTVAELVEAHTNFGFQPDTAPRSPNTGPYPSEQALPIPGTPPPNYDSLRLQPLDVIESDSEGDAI
T1 sequence (P51170 1-649): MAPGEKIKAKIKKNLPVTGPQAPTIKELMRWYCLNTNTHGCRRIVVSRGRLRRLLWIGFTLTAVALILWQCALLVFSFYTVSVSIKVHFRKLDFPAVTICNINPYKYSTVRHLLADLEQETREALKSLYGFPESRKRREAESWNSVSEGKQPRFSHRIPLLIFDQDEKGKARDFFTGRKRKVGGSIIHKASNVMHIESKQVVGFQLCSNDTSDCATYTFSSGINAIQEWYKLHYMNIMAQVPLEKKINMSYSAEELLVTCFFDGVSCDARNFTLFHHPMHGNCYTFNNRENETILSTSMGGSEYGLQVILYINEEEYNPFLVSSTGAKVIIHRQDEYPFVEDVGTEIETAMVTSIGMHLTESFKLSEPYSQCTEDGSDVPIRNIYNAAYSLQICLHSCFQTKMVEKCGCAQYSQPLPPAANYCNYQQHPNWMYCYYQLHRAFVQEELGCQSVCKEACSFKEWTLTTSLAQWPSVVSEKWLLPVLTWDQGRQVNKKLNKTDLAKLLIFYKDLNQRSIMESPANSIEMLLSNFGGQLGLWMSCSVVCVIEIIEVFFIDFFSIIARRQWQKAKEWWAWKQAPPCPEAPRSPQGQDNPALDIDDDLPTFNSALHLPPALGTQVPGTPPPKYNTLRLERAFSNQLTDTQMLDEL
Method: The frog, Xenopus laevis, produces oocytes that are particularly obliging in permitting a foreign gene to be incorporated into its protein translation system. The egg then makes this foreign protein encoded by the injected complimentary RNA (cRNA). Oocytes are harvested when at stage 5 or 6, from female Xenopus and defolliculated (using trypsin) and placed in low sodium culture medium. After overnight culture the egg is injected with the cRNA of the protein(s) of interest.
There is evidence that one of the major “receptors” of salty taste is the ENaC. This channel functions as a heterotrimer, a complex of three different peptides. The transfected eggs are then cultured for 4 to 6 days. Depending upon the endpoint of the study, all three subunits are expressed into one cell or one subunit is expressed per cell. The internal machinery of the cell places the ENaC into the plasma membrane. These preparations can be used as follows: • 1. Two Electrode Voltage Clamp (TEVC) across the entire oocyte is the most direct method for detecting ion flux through the ENaC, but it will respond to any ion movement, making it less desirable for precise analyses, but very useful as an initial screen. • 2. Patch clamp is used to record movement of very few ions through very few channels. […]

Compound: CC(C)CCC(=O)NCCO [N-(2-hydroxyethyl)-4-methylpentanamide]
- enhancement of saltiness of 50 mM NaCl (human taste; 50 mM NaCl plus 20 ppm compound, geometric mean saltiness intensity ratings): more than 100%
- enhancement of saltiness of 75 mM NaCl (human taste; 75 mM NaCl plus 20 ppm compound, geometric mean saltiness intensity ratings): approximately 35%
- saltiness of its own (saltiness intensity rating) (human taste; compound alone at 20 ppm, 121 subjects): almost no saltiness of its own
- average bitterness intensity (human taste; compound alone at 20 ppm, data not shown): 3
- reversibility of inward current [1]: completely reversible
- effect on sodium currents (inward current) in oocytes ([1]; successive addition of increasing (nanomolar) concentrations, from baseline state): enhancement of sodium currents
